How the values were obtained:
Test in all cases: relative viability (nuclei count vs DMSO), 5 days (fraction); higher = more cells survive
[1] = compound: C1CN(CCC1C(C2=CC3=C(C=C2)OCO3)(C4=CC5=C(C=C4)OCO5)O)C(=O)OC6=CC=C(C=C6)[N+](=O)[O-] [JZL-184] + Nc1ncn([C@H]2C[C@H](O)[C@@H](CO)O2)c(=O)n1 [Decitabine] (partner 2 µM)
How it was run: (§1)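 Medians of duplicate plates are given as relative viability. That measure is the nuclei count in treated wells divided by the count in vehicle wells. Counts were taken on 4× images of lung cancer cell lines in 1536-well plates, 5 days after pin-tool dosing the day after seeding with one drug alone or a fixed anchor-drug dose plus five library-drug doses (not always all listed) in √10 steps.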

[2] = compound: C1CN(CCC1C(C2=CC3=C(C=C2)OCO3)(C4=CC5=C(C=C4)OCO5)O)C(=O)OC6=CC=C(C=C6)[N+](=O)[O-] [JZL-184] + COc1cc2c(Oc3ccc(NC(=O)C4(C(=O)Nc5ccc(F)cc5)CC4)cc3F)ccnc2cc1OCCCN1CCOCC1 [Foretinib] (partner 0.25 µM)
How it was run: as §1

[3] = compound: C1CN(CCC1C(C2=CC3=C(C=C2)OCO3)(C4=CC5=C(C=C4)OCO5)O)C(=O)OC6=CC=C(C=C6)[N+](=O)[O-] [JZL-184] + CC(C)C[C@H](NC(=O)[C@H](Cc1ccccc1)NC(=O)c1cnccn1)B(O)O [Bortezomib] (partner 0.002 µM)
How it was run: as §1

[4] = compound: C1CN(CCC1C(C2=CC3=C(C=C2)OCO3)(C4=CC5=C(C=C4)OCO5)O)C(=O)OC6=CC=C(C=C6)[N+](=O)[O-] [JZL-184] + Nc1nc2[nH]cc(CCc3ccc(C(=O)N[C@@H](CCC(=O)O)C(=O)O)cc3)c2c(=O)[nH]1 [Pemetrexed] (partner 0.2 µM)
How it was run: as §1

[5] = compound: C1CN(CCC1C(C2=CC3=C(C=C2)OCO3)(C4=CC5=C(C=C4)OCO5)O)C(=O)OC6=CC=C(C=C6)[N+](=O)[O-] [JZL-184] + CC(=O)c1c(C)c2cnc(Nc3ccc(N4CCNCC4)cn3)nc2n(C2CCCC2)c1=O [Palbociclib] (partner 0.5 µM)
How it was run: as §1

Cell Line	relative viability ([1]; first compound 0.04 µM)	relative viability ([1]; first compound 0.4 µM)	relative viability ([1]; first compound 1.265 µM)	relative viability ([1]; first compound 4 µM)	relative viability ([2]; first compound 0.04 µM)	relative viability ([2]; first compound 0.4 µM)	relative viability ([2]; first compound 1.265 µM)	relative viability ([2]; first compound 4 µM)	relative viability ([3]; first compound 0.04 µM)	relative viability ([3]; first compound 0.4 µM)	relative viability ([3]; first compound 1.265 µM)	relative viability ([3]; first compound 4 µM)	relative viability ([4]; first compound 0.04 µM)	relative viability ([4]; first compound 0.4 µM)	relative viability ([4]; first compound 1.265 µM)	relative viability ([4]; first compound 4 µM)	relative viability ([5]; first compound 0.04 µM)	relative viability ([5]; first compound 0.4 µM)	relative viability ([5]; first compound 1.265 µM)	relative viability ([5]; first compound 4 µM)
NCI-H2126	0.597	0.608	0.558	0.555	1.15	1.09	1.14	1.12	1.13	1.09	1.09	1.15	0.663	0.66	0.726	0.705	0.329	0.357	0.359	0.345
NCI-H2347		0.577	0.657	0.644	0.771	0.884	1.13	1.3	1.12	0.717	1.05	0.906	0.388	0.368	0.402	0.45		0.398	0.407	0.443
NCI-H2405	0.792	0.694	0.738	0.767	1.08	1.06	1.13	1	1.05	0.943	1.06	0.769	1.09	0.999	1.14	1.05	0.594	0.409	0.541	0.489
NCI-H3122	0.411	0.458	0.375	0.433	1.03	0.954	0.944	0.983	1.01	0.93	0.982	1.03	0.187	0.18	0.2	0.204	0.168	0.181	0.22	0.208
PC-3 [JPC-3]	1.02	0.825	0.874	0.822	1.08	0.975	1.09	0.913	0.988	0.895	0.835	0.801	0.994	1.13	1.27	1.05	0.573	0.558	0.485	0.536
PC-14	0.343	0.199	0.198	0.241	1.02	0.927	0.954	0.946	0.808	0.972	0.781	0.77	0.126	0.128	0.15	0.114	0.659	0.49	0.517	0.519
RERF-LC-KJ	0.854	0.706	0.808	0.56	0.933	0.9	0.876	0.781	1.15	0.96	1.11	1.04	0.496	0.463	0.468	0.44	1.17	1.14	1.17	0.982
SK-LU-1	0.673	0.584	0.705	0.698	0.909	0.77	0.919	0.722	0.929	1.06	1.29	1.16	1.04	0.887	1	0.881	0.387	0.393	0.433	0.405
SW 1573	0.818	0.449	0.484	0.463	1.06	0.791	0.94	0.829	1.14	0.935	1.08	0.976	1.11	0.842	0.915	0.876	0.458	0.328	0.45	0.383
UMC-11	0.738	0.521	0.616	0.733	1.09	0.883	1.11	1.09	0.79	0.723	0.571	0.673	0.916	0.755	0.876	0.79	0.327	0.339	0.366	0.35

Source: the supplement of paper PMC10307832
